Test results published in patent publication US12616712B2 (LONZA SALES AG, priority 2019, dated 2026).

System: GL261-Luc glioblastoma multiforme
Assay: syngeneic GL261-Luc glioblastoma multiforme model
Format: in vivo
Conditions: mice, control groups, FIG. 7A
Method: The efficacy of exoSTING treatment in a syngeneic GL261-Luc glioblastoma multiforme model was assessed. Briefly, 5×10^5 GL261-LUC cells were administered via a 10 μl intra-striatal stereotactic injection to the mice. Tumor presence was confirmed by T1-weighted (T1W) MRI scan 15 days later. Four days after the MRI scan, when tumors were approximately 80-100 mm^3, stereotactic coordinates were used to administer 5 μl (˜120 ng) ExoSTING every 72 hours for 3 total injections to some of the animals. […] Anti-PDL-1 mAb was dosed twice weekly for 2 weeks (IOmpk IV). Phosphate buffered saline (PBS) alone and Temozolomide (TMZ) alone were dosed twice weekly for 2 weeks (30mpk IP). Mice were then followed for survival end-point.

## Cn1nnc2c(C(N)=O)ncn2c1=O [Temozolamide]
  survival: all animals succumbed to the tumor by day post tumor induction: ~40 days
